Measurements reported in patent US20230406821A1, “STRIGOLACTONE DERIVATIVES” (Plant Response, Inc., priority 2017, published 2023).

What was measured:
[1] = tested on: S. lycopersicum cv. Micro-Tom; test: Stomatal conductance (LI-6400XT) after ABA treatment in tomato; type: in vivo, Solanum lycopersicum; settings: 500 μM in DMSO (0.1%) applied one hour before ABA (100 μM), compared to ABA alone (FIG. 6)
Text: FIG. 6 is a boxplot showing the distribution of tomato (S. lycopersicum cv. Micro-Tom) stomatal conductance (mmol/m^2/s) measurements taken via LI-6400XT, plotted by treatment. Plants treated with strigolactone molecule MBS-127 prior to treatment with abscisic acid (ABA) show increased stomatal conductance, as measured by gas exchange with the LI-6400XT, compared to plants treated with ABA alone. Stars indicate significant differences relative to ABA (*: adjusted P<0.05, **: adjusted P<0.01; p-values were adjusted for multiple-hypothesis testing using a Bonferroni correction).
An early response and critical component of abiotic stress response signaling in plants is the production and transport of the phytohormone abscisic acid (ABA) (Kuromori, T., et al., “ABA Transport and Plant Water Stress Responses,” Trends in Plant Science (2018) Vol. 23 (6), pp. 513-522). […]

BRANCHED1 (BRC1) gene = test: BRC1 gene expression by RT-PCR in sprayed seedlings; type: in vivo, Arabidopsis thaliana; settings: Col-0 seedlings, foliar spray, 0.4% DMSO, shoots harvested 24 hours later; similarly to GR24 (FIG. 2)
Text: FIG. 2 is a boxplot representing Ct value distributions of BRC1 relative to constitutive control Ct values plotted as ΔCt. Due to the non-normal distribution of the BRC1 data, non-parametric Mann-Whitney U-tests were used to assess statistical significance. Stars indicate significant differences relative to the DMSO control (**: adjustedp-value <0.001; *: adjusted p-value <0.01; p-values adjusted for multiple-hypothesis testing with the Bonferroni correction). […]
Another experiment was performed to consider an aspect of molecular signal transduction. A number of genes in Arabidopsis thaliana are well known downstream signaling targets of the native strigolactone pathway. […]
In this experiment sterilized and stratified seeds of the A. thaliana Columbia (Col-0) were planted on growth media (Murashige and Skoog (MS) M404 with vitamins (2.2 g/L), 0.5% sucrose, 0.05% IVIES hydrate, 0.6% PhytoBlend™) for eight days in a growth chamber under 16 hours of light per day at 22° C. and 19° C. nights. […] Total RNA was extracted and RT-PCR quantification was performed using kits from Macherey-Nagel and Bioline and an ABI 7900HT instrument. […]

Structure (SMILES)	leaf (stomatal) conductance after ABA [1]	expression of the BRC1 gene (ΔCt) (BRANCHED1 (BRC1) gene)
COC(=O)/C=C/OC1C=C(C)C(=O)O1 (stereo not drawn) [MBS-127, 3-(4-Methyl-5-oxo-2,5-dihydro-furan-2-yloxy)-acrylic acid methyl ester]	protect against the drought stress response related reduction in leaf conductance induced by ABA	induced expression of the BRC1 gene
COC(=O)/C=C/OC1(C)C=C(C)C(=O)O1 (stereo not drawn) [MBS-128, methyl (E)-3-((2,4-dimethyl-5-oxo-2,5-dihydrofuran-2-yl)oxy)acrylate]	–	induced expression of the BRC1 gene
